Counter-ions that a name gives are not always drawn. In the oligonucleotide strings, read from the 5' end, every base follows the letter of its sugar. An asterisk marks phosphorothioate; unmarked linkages are phosphodiester. Other units and linkages are bracketed, terminal groups are in braces. A string of capitals states the bases alone. e = 2'-O-(2-methoxyethyl) (MOE); [5mC] = 5-methylcytosine; d = 2'-deoxy (DNA)
Test system: mouse growth hormone receptor mRNA
Test: Inhibition of mouse growth hormone receptor mRNA levels in b.END cells, quantitative real-time PCR, incl. dose-response
Assay type: cell-based
Details: averages from three experiments
Procedure: The mouse brain endothelial cell line b.END was obtained from Dr. Werner Risau at the Max Plank Instititute (Bad Nauheim, Germany). b.END cells were routinely cultured in DMEM, high glucose (Gibco/Life Technologies, Gaithersburg, Md.) supplemented with 10% fetal calf serum (Gibco/Life Technologies, Gaithersburg, Md.). Cells were routinely passaged by trypsinization and dilution when they reached 90% confluence. Cells were seeded into 96-well plates (Falcon-Primaria #3872) at a density of 3000 cells/well for use in RT-PCR analysis.
When cells reached 65-75% confluency, they were treated with oligonucleotide. For cells grown in 96-well plates, wells were washed once with 100 μL OPTI-MEM™-1 reduced-serum medium (Invitrogen Corporation, Carlsbad, Calif.) and then treated with 130 μL of OPTI-MEM™-1 containing 3.75 μg/mL LIPOFECTIN™ (Invitrogen Corporation, Carlsbad, Calif.) and the desired concentration of oligonucleotide. Cells are treated and data are obtained in triplicate. After 4-7 hours of treatment at 37° C., the medium was replaced with fresh medium. Cells were harvested 16-24 hours after oligonucleotide treatment.
Total RNA was isolated using an RNEASY 96™ kit and buffers purchased from Qiagen Inc. (Valencia, Calif.) following the manufacturer's recommended procedures. Briefly, for cells grown on 96-well plates, growth medium was removed from the cells and each well was washed with 200 μL cold PBS. 150 μL Buffer RLT was added to each well and the plate vigorously agitated for 20 seconds. 150 μL of 70% ethanol was then added to each well and the contents mixed by pipetting three times up and down. The samples were then transferred to the RNEASY 96™ well plate attached to a QIAVAC™ manifold fitted with a waste collection tray and attached to a vacuum source. Vacuum was applied for 1 minute. 500 μL of Buffer RW1 was added to each well of the RNEASY 96™ plate and incubated for 15 minutes and the vacuum was again applied for 1 minute. An additional 500 μL of Buffer RW1 was added to each well of the RNEASY 96™ plate and the vacuum was applied for 2 minutes. 1 mL of Buffer RPE was then added to each well of the RNEASY 96™ plate and the vacuum applied for a period of 90 seconds. The Buffer RPE wash was then repeated and the vacuum was applied for an additional 3 minutes. The plate was then removed from the QIAVAC™ manifold and blotted dry on paper towels. The plate was then re-attached to the QIAVAC™ manifold fitted with a collection tube rack containing 1.2 mL collection tubes. RNA was then eluted by pipetting 140 μL of RNAse free water into each well, incubating 1 minute, and then applying the vacuum for 3 minutes.
Quantitation of growth hormone receptor mRNA levels was accomplished by real-time quantitative PCR using the ABI PRISM™ 7600, 7700, or 7900 Sequence Detection System (PE-Applied Biosystems, Foster City, Calif.) according to manufacturer's instructions. This is a closed-tube, non-gel-based, fluorescence detection system which allows high-throughput quantitation of polymerase chain reaction (PCR) products in real-time. As opposed to standard PCR in which amplification products are quantitated after the PCR is completed, products in real-time quantitative PCR are quantitated as they accumulate. This is accomplished by including in the PCR reaction an oligonucleotide probe that anneals specifically between the forward and reverse PCR primers, and contains two fluorescent dyes. A reporter dye (e.g., FAM or JOE, obtained from either PE-Applied Biosystems, Foster City, Calif., Operon Technologies Inc., Alameda, Calif. or Integrated DNA Technologies Inc., Coralville, Iowa) is attached to the 5′ end of the probe and a quencher dye (e.g., TAMRA, obtained from either PE-Applied Biosystems, Foster City, Calif., Operon Technologies Inc., Alameda, Calif. or Integrated DNA Technologies Inc., Coralville, Iowa) is attached to the 3′ end of the probe. […]

First: 227495 (antisense eT*e[5mC]*e[5mC]*eT*eG*dA*dA*d[5mC]*dT*dG*d[5mC]*dA*dA*dA*dA*eG*e[5mC]*e[5mC]*eA*e[5mC]) [compound 227495]
Second: 227511 (antisense e[5mC]*e[5mC]*eA*e[5mC]*eG*d[5mC]*dA*d[5mC]*d[5mC]*d[5mC]*dA*d[5mC]*dA*dA*dG*e[5mC]*eG*eG*eA*eT) [compound 227511]
The “% INHIB of mouse growth hormone receptor mRNA levels” value (from here on “% INHIB”) of the first is lower: 47% for the first, 71% for the second.

First: 227503 (antisense eT*eA*e[5mC]*e[5mC]*eT*dG*dA*dG*dA*d[5mC]*d[5mC]*d[5mC]*d[5mC]*dA*dG*eT*eT*e[5mC]*eA*eT) [compound 227503]
Second: 227487 (antisense eT*e[5mC]*eA*eG*eG*d[5mC]*dA*dA*dA*dG*dG*d[5mC]*dA*dA*dA*eG*e[5mC]*eA*eG*eT) [compound 227487]
The “% INHIB” value of the first is lower: 24% for the first, 44% for the second.

First: 227456 (antisense eG*eT*e[5mC]*e[5mC]*eA*dG*dT*dT*dG*dA*dG*dG*d[5mC]*d[5mC]*dA*eA*eT*eG*eG*eG) [compound 227456]
Second: 227457 (antisense eG*eA*eA*eT*eT*dA*dT*d[5mC]*d[5mC]*dA*dT*d[5mC]*d[5mC]*d[5mC]*dT*eT*e[5mC]*eA*eG*eA) [compound 227457]
The “% INHIB” value of the first is higher: 97% for the first, 67% for the second.

Going from “227444 (antisense eA*eT*eG*eG*e[5mC]*dT*dG*d[5mC]*dG*d[5mC]*d[5mC]*dT*dG*d[5mC]*dT*eT*eG*eG*e[5mC]*eA) [compound 227444]” to “227518 (antisense e[5mC]*eA*e[5mC]*eG*eG*d[5mC]*dT*dT*dA*d[5mC]*d[5mC]*dT*dA*dT*dT*eT*e[5mC]*eG*eT*e[5mC]) [compound 227518]”, the “% INHIB” value falls from 53% to 6%.

Compared with “227485 (antisense e[5mC]*eG*eT*eG*eG*dT*dG*dT*dA*dG*dT*d[5mC]*dT*dG*dG*eG*eA*e[5mC]*eA*eG) [compound 227485]”, “227476 (antisense eG*eT*eA*eA*eT*dT*dT*dT*d[5mC]*dT*dT*dG*dG*d[5mC]*dA*eG*eG*eG*e[5mC]*eG) [compound 227476]” is lower in “% INHIB” value: 45% for the first, 41% for the second.

Going from “227474 (antisense eT*eG*eT*e[5mC]*eG*d[5mC]*dT*dT*dA*d[5mC]*dT*dT*dG*dG*dG*e[5mC]*eA*eT*eA*eA) [compound 227474]” to “227443 (antisense eT*eG*e[5mC]*eT*eT*dG*dG*d[5mC]*dA*dG*d[5mC]*dT*d[5mC]*dG*dT*eG*eG*eG*eT*eT) [compound 227443]”, the “% INHIB” value falls from 68% to 0%.

Test system: not listed separately
Test: Body weight, body length, organ weights and food intake, 1 week pilot study
Assay type: in vivo, mouse
Details: octreotide group
Procedure: Saline, antisense, mismatch control and octreotide samples were prepared, and coded for blinding. Animals were given a subcutaneous dose of saline every second day, and mismatch control or antisense with administration on days 0, 2, 4, 6. Animals were given twice daily doses of 25 μg octreotide. Animals were housed 4 per cage, for the duration of one week. They had access to a pre-determined quantity of standard mouse food and water at all times throughout the experiment. They were housed in a quiet, temperature- and humidity-maintained environment for the entirety of the study. At day 0 and before treatment on each day or second day, the animals had their body weight and food intake measured, enabling the correct dose of agent to be administered. The animals were monitored closely for any changes in fur, skin, eye, locomotion or other changes in behavior. No problems were observed. Every second day from day −7 to day 7 body weight and food intake were measured.
The serum remaining following the insulin-like growth factor-1 assay was isolated and stored at −80° C. The whole liver was removed rapidly for weighing and snap-frozen in labelled aluminum parcels by submersion in liquid-nitrogen. […]
This confirms published results of others. […] Weight was measured in two ways: weight trend (live animal), and final carcass weight. […]

With `C[C@@H](O)[C@@H]1NC(=O)[C@H](CCCCN)NC(=O)[C@@H](Cc2c[nH]c3ccccc23)NC(=O)[C@H](Cc2ccccc2)NC(=O)[C@@H](NC(=O)[C@H](N)Cc2ccccc2)CSSC[C@@H](C(=O)N[C@H](CO)[C@@H](C)O)NC1=O` [Octreotide, octreotide, reference compound] the “liver weight (g/total body weight)” value was “slight increase”.

Test system: serum IGF-I
Test: Serum IGF-I, 2 week study in mice
Assay type: in vivo, mouse
Details: 30 mg/kg; 2 weeks
Procedure: A two-week study was done in similar fashion to the one-week study in Example 18, this time using ISIS 227446 at doses of 3, 5, 10, 20 and 30 mg/kg. The mismatch control was given at the same doses. Mice were treated with antisense compound or saline every other day for 14 days.
P-values were determined by t-test.

In the case of “TTACCGTATGGTTCCTCACT (chemistry not given here) [ISIS 260120, unrelated negative control oligonucleotide, reference compound]”, the “effect on serum IGF-I at 30 mg/kg as observed with the mismatch oligonucleotide” value is reported as “not observed”.

Test system: not given
Test: not given
Details: dosed orally; cited from earlier work

`CC(C)C[C@H]1C(=O)N2CCC[C@H]2[C@]2(O)O[C@](NC(=O)[C@@H]3C=C4c5cccc6[nH]c(Br)c(c56)C[C@H]4N(C)C3)(C(C)C)C(=O)N12` [bromocriptine mesylate] and `C=CCN1C[C@H](C(=O)N(CCCN(C)C)C(=O)NCC)C[C@@H]2c3cccc4[nH]cc(c34)C[C@H]21` [cabergoline] are the same in “reduce growth hormone production and associated IGF-I sufficiently, % of cases” value: 10% for the first, 10% for the second.
